Test results taken from patent US8895571B2, “Isoindolinone and pyrrolopyridinone derivatives as Akt inhibitors” (Incyte Corporation, priority 2011, dated 2014).

Key:
[1] = test system: LNCaP cells (human prostate tumor cell line); assay: Akt LNCaP proliferation assay (MTS); type: cell-based; conditions: 48 hours
Procedure: LNCaP cells (human prostate tumor cell line) were plated in 96 well plates (COSTAR, Corning, N.Y.) in 50 μL at 10,000 cells/well in RPMI (Media Tech, Manassas, Va.), 2% fetal bovine serum (Hyclone/Thermo, Logan, Utah) and incubated overnight at 37° C., 5% CO2. […] of compound solution were added at final concentrations of 1000 nM to 0.5 nM in 3 fold dilutions for IC50 determination and plates further incubated for 48 hours. 100 μL of Cell Titer 96® Aqueous reagent, from an MTS colorimetric method for determining the number of viable cells in proliferation (Cell titer 96, Promega, Madison, Wis.) was added for 2 hours at 37° C., 5% CO2. Each plate was mixed well and read on a SpectroMax M5 automated plate reader (Molecular Devices, Sunnyvale Calif.). The ability of the compound to inhibit proliferation was reported as the inhibitor concentration required for 50% inhibition (IC50 values) of total cell proliferation. See Table 8 for data related to compounds of the examples.

Full length Akt1 = biological target: T1, Full length Akt1 (Homo sapiens, UniProt P31749); assay: In vitro Akt kinase enzymatic assay (HTRF), Akt1; type: biochemical; conditions: 0.4 nM Akt1, substrate solution with 5 mM ATP, 25° C. 1 hr
T1 construct: Full length Akt1 (cat #P2999); purchased PerkinElmer P2999
In short: (§1)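 Full-length enzyme (0.4 nM Akt1 or 0.6 nM Akt2/Akt3 in the enzyme solution) was combined with a substrate solution of 0.1 μM ULight-Crosstide plus 5 mM ATP in pH 7.8 HEPES/MgCl2/DTT/Tween20 buffer and reacted 1 hr at 25° C. The EDTA stop contained Eu anti-phospho-Crosstide; IC50 was fitted from 11-point HTRF inhibition curves.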

Full length Akt3 = biological target: T2, Full length Akt3 (Homo sapiens, UniProt Q9Y243); assay: In vitro Akt kinase enzymatic assay (HTRF), Akt3; type: biochemical; conditions: 0.6 nM Akt3, substrate solution with 5 mM ATP, 25° C. 1 hr
T2 construct: Full length Akt1 (cat #P2999), Akt2 (cat #PV3184), Akt3 (cat #PV3185); purchased PerkinElmer PV3185
In short: as §1

Full length PKA = biological target: T3, Full length PKA (Homo sapiens, UniProt P17612); assay: PKA in vitro enzymatic assay (HTRF); type: biochemical; conditions: 0.035 nM enzyme solution, substrate solution with 5 mM ATP, 25° C. 1 hr
T3 construct: Full length PKA (cat #P2912); purchased Invitrogen P2912
In short: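 Reaction buffer was 50 mM HEPES pH 7.8, 10 mM MgCl2, 5 mM DTT and 0.005% Tween20. Enzyme solution was 0.035 nM, and substrate solution was 0.1 μM fluorescein-CREBtide with 5 mM ATP. After 1 h at 25°C, EDTA plus Tb anti-pS133 antibody was added, TR-FRET was read, and IC50 was fitted from 11-point, 3-fold % inhibition curves.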

Full length Akt2 = biological target: T4, Full length Akt2 (Homo sapiens, UniProt P31751); assay: In vitro Akt kinase enzymatic assay (HTRF), Akt2; type: biochemical; conditions: 0.6 nM Akt2, substrate solution with 5 mM ATP, 25° C. 1 hr
T4 construct: Full length Akt1 (cat #P2999), Akt2 (cat #PV3184); purchased PerkinElmer PV3184
In short: as §1

[2] = 2% fetal bovine serum, class symbols
[3] = given as a bound, final concentrations 1000 nM to 0.5 nM

T4 sequence (P31751 whole entry): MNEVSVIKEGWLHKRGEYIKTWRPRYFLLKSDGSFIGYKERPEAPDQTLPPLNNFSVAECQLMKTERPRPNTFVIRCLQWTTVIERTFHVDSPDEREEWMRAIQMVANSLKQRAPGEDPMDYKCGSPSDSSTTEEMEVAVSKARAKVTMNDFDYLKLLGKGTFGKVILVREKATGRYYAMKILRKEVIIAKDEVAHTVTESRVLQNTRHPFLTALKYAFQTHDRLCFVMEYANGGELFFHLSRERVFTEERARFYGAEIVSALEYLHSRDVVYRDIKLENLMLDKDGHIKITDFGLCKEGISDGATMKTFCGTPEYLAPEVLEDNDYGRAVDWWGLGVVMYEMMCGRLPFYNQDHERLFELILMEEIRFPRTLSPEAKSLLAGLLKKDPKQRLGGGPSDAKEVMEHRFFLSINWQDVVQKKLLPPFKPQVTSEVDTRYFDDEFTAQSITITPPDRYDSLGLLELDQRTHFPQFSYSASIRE
T2 sequence (Q9Y243 whole entry): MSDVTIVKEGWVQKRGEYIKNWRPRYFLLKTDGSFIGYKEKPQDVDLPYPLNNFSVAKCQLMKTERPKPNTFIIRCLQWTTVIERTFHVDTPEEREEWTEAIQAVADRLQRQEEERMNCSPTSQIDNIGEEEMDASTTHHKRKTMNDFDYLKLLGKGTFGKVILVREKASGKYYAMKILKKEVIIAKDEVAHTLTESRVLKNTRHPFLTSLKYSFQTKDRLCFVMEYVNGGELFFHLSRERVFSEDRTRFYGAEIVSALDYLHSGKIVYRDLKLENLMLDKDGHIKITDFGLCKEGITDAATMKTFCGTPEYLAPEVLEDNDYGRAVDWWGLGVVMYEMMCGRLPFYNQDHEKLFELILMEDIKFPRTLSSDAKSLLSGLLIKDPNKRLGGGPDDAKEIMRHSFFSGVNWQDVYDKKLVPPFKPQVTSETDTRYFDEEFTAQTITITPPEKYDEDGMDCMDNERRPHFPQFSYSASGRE
T1 sequence (P31749 whole entry): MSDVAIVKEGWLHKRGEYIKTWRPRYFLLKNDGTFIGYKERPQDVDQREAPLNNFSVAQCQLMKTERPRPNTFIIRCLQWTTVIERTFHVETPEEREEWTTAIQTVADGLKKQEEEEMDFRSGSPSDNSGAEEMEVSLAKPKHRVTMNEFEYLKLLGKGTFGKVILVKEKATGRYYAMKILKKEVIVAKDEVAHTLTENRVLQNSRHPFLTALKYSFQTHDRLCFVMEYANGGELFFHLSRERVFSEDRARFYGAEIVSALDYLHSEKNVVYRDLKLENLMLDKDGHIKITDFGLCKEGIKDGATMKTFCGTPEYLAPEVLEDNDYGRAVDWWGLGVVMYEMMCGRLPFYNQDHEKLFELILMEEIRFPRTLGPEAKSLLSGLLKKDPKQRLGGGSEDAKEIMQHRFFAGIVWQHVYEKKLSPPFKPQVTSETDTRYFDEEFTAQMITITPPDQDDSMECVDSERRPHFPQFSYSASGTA

Compound | IC50 [1, 2] [nM] | IC50 (Full length Akt1) [nM] | IC50 (Full length Akt3) [nM] | IC50 (Full length PKA) [nM] | IC50 (Full length Akt2) [nM] | IC50 [1, 3] [nM]
CCOCc1cnn(C)c1-c1ccc2c(c1)CN([C@H](CN)Cc1cccc(F)c1)C2=O [Example 5, 2-[(1S)-2-amino-1-(3-fluorobenzyl)ethyl]-5-(4-ethoxymethyl-1-methyl-1H-pyrazol-5-yl)isoindolin-1-one] | < 500 | < 500 | < 500 | > 5000 | < 500 | 
CCCOCc1cnn(C)c1-c1ccc2c(c1)CN([C@H](CN)Cc1cccc(F)c1)C2=O [Example 7, 2-[(1S)-2-amino-1-(3-fluorobenzyl)ethyl]-5-[4-(1-propoxymethyl)-1-methyl-1H-pyrazol-5-yl]isoindolin-1-one] | < 500 | < 500 | < 500 | > 5000 | < 500 | 
Cn1nccc1-c1ccc2c(c1)CN([C@H](CN)Cc1cccc(-c3cncnc3)c1)C2=O [Example 87, 2-[(1S)-2-amino-1-(3-pyrimidin-5-ylbenzyl)ethyl]-5-(1-methyl-1H-pyrazol-5-yl)isoindolin-1-one] |  | 500 to 5000 | > 5000 | > 5000 | > 5000 | > 1000
COCc1cnn(C)c1-c1cc2c(cn1)C(=O)N([C@H](CN)Cc1cc(F)cc(F)c1)C2 [Example 105, 2-[(1S)-2-amino-1-(3,5-difluoro-benzyl)ethyl]-6-(4-methoxymethyl-1-methyl-1H-pyrazol-5-yl)-1,2-dihydro-3H-pyrrolo[3,4-c]pyridin-3-one] | 500 to 5000 | < 500 | < 500 | > 5000 | 500 to 5000 | 
Cn1nccc1-c1ccc2c(c1)CN([C@H](CN)Cc1ccccc1)C2=O [Example 55, 2-[(1S)-2-amino-1-benzyl-ethyl]-5-(1-methyl-1H-pyrazol-5-yl)isoindolin-1-one] | < 500 | < 500 | < 500 | > 5000 | < 500 | 
Cn1ncc(C#N)c1-c1ccc2c(c1)CN([C@H](CN)Cc1cc(F)cc(F)c1)C2=O [Example 53, 2-[(1S)-2-amino-1-(3,5-difluorobenzyl)ethyl]-5-(4-cyano-1-methyl-1H-pyrazol-5-yl)isoindolin-1-one] | < 500 | < 500 | < 500 | 500 to 5000 | < 500 | 
Cn1nccc1-c1ccc2c(c1)CN([C@H](CN)Cc1csc3ccccc13)C2=O [Example 76, 2-[(1S)-2-amino-1-(1-benzothien-3-ylmethyl)ethyl]-5-(1-methyl-1H-pyrazol-5-yl)isoindolin-1-one] | < 500 | < 500 | < 500 | > 5000 | < 500 | 
Cn1ncc(C#CC(C)(C)O)c1-c1ccc2c(c1)CN([C@H](CN)Cc1cc(F)cc(F)c1)C2=O [Example 54, 2-[(1S)-2-amino-1-(3,5-difluorobenzyl)ethyl]-5-[4-(3-hydroxy-3-methylbut-1-yn-1-yl)-1-methyl-1H-pyrazol-5-yl]isoindolin-1-one] | < 500 | < 500 | < 500 | > 5000 | < 500 | 
Cn1ncc(Br)c1-c1cc2c(cn1)C(=O)N([C@H](CN)Cc1cc(F)cc(F)c1)C2 [Example 104, 2-[(1S)-2-amino-1-(3,5-difluoro-benzyl)ethyl]-6-(4-broro-1-methyl-1H-pyrazol-5-yl)-1,2-dihydro-3H-pyrrolo[3,4-c]pyridin-3-one] | < 500 | < 500 | < 500 | 500 to 5000 | < 500 | 
Cn1nccc1-c1cc2c(cn1)C(=O)N([C@H](CN)Cc1cccc(F)c1)C2 [Example 93, 2-[(1S)-2-amino-1-(3-fluorobenzyl)ethyl]-6-(1-methyl-1H-pyrazol-5-yl)-1,2-dihydro-3H-pyrrolo[3,4-c]pyridin-3-one] | < 500 | < 500 | < 500 | 500 to 5000 | < 500 | 
CC(C)Cn1nccc1-c1ccc2c(c1)CN([C@H](CN)Cc1cccc(F)c1)C2=O [Example 129, 2-[(1S)-2-amino-1-(3-fluorobenzyl)ethyl]-5-(1-isobutyl-1H-pyrazol-5-yl)isoindolin-1-one] |  | 500 to 5000 | > 5000 | > 5000 | > 5000 | > 1000
CC(C)OCc1cnn(C)c1-c1ccc2c(c1)CN([C@H](CN)Cc1cc(F)cc(F)c1)C2=O [Example 45, 2-[(1S)-2-amino-1-(3,5-difluorobenzyl)ethyl]-5-[4-(2-propoxymethyl)-1-methyl-1H-pyrazol-5-yl]isoindolin-1-one] | < 500 | < 500 | < 500 | 500 to 5000 | < 500 | 
CCSCc1cnn(C)c1-c1ccc2c(c1)CN([C@H](CN)Cc1cc(F)cc(F)c1)C2=O [Example 50, 2-[(1S)-2-amino-1-(3,5-difluorobenzyl)ethyl]-5-[4-(ethylthio)methyl-1-methyl-1H-pyrazol-5-yl]isoindolin-1-one] | < 500 | < 500 | < 500 | > 5000 | < 500 | 
CCCOCc1cnn(C)c1-c1ccc2c(c1)CN([C@H](CN)Cc1cc(F)cc(F)c1)C2=O [Example 46, 2-[(1S)-2-amino-1-(3,5-difluorobenzyl)ethyl]-5-[4-(1-propoxymethyl)-1-methyl-1H-pyrazol-5-]isoindolin-1-one] | < 500 | < 500 | < 500 | 500 to 5000 | < 500 | 
Cn1nccc1-c1ccc2c(c1)CN([C@H](CN)Cc1ccsc1)C2=O [Example 81, 2-[(1S)-2-amino-1-(3-thienylmethyl)ethyl]-5-(1-methyl-1H-pyrazol-5-yl)isoindolin-1-one] | < 500 | < 500 | < 500 | 500 to 5000 | < 500 | 
Cn1nccc1-c1cnn(C)c1-c1ccc2c(c1)CN([C@H](CN)Cc1cccc(F)c1)C2=O [Example 17, 2-[(1S)-2-amino-1-(3-fluorobenzyl)ethyl]-5-(1′,2-dimethyl-1′H,2H-3,4′-bipyrazol-5′-yl)isoindolin-1-one] |  | > 5000 | > 5000 | > 5000 | > 5000 | 
CC(C)OCc1cnn(C)c1-c1ccc2c(c1)CN([C@@H](CN)c1ccccc1)C2=O [Example 122, 2-[(1R)-2-amino-1-phenylethyl]-5-[4-(2-propoxymethyl)-1-methyl-1H-pyrazol-5-yl]iso-indolin-1-one] |  | < 500 | 500 to 5000 | > 5000 | 500 to 5000 | 
Cn1ncc(-c2cccnc2F)c1-c1ccc2c(c1)CN([C@H](CN)Cc1cccc(F)c1)C2=O [Example 24, 2-[(1S)-2-amino-1-(3-fluorobenzyl)ethyl]-5-[4-(2-fluoropyridin-3-yl)-1-methyl-1H-pyrazol-5-yl]isoindolin-1-one] |  | > 5000 | > 5000 | > 5000 | > 5000 | 
CCN(CC)C[C@H](Cc1cccc(F)c1)N1Cc2cc(-c3c(Cl)cnn3C)ccc2C1=O [Example 39, 5-(4-chloro-1-methyl-1H-pyrazol-5-yl)-2-[(1S)-2-(diethylamino)-1-(3-fluorobenzyl)ethyl]isoindolin-1-one] |  | < 500 | 500 to 5000 | > 5000 | > 5000 | 
